From patent publication US20230149409A1, “TREATMENT OF HUMAN PAPILLOMAVIRUS-ASSOCIATED CANCERS BY PD-L1 INHIBITORS” (priority 2021, published 2023) come the findings set out here.

For assay [1], the target named is T1, PD-⅟PD-L1 (recombinant human PD-L1 protein and human PD-1 protein) (Homo sapiens, UniProt Q9NZQ7).
T1 construct: Recombinant human PD-L1 protein (19-238) with a His-tag at the C-terminus; purchased AcroBiosystems PD1-H5229 (PD-L1); PD1-H5257 (PD-1)
As to the kind of experiment: Homogeneous Time-Resolved Fluorescence (HTRF) PD-1/PD-L1 binding assay. To be noted: 3 nM PD1, 10 nM PD-L1, 25° C., PBS pH 7.4.

For assay [2], the target named is T2, PD-L1 on CD14+ cells in human whole blood (Homo sapiens, UniProt Q9NZQ7).
T2 construct: Cells were gated on CD14+ (BD Biosciences) and PD-L1 expression determined by mean fluorescence intensity; host or cells: CD14+ cells in normal human whole blood, stimulated with human interferon gamma
T2 sequence (Q9NZQ7 19-290): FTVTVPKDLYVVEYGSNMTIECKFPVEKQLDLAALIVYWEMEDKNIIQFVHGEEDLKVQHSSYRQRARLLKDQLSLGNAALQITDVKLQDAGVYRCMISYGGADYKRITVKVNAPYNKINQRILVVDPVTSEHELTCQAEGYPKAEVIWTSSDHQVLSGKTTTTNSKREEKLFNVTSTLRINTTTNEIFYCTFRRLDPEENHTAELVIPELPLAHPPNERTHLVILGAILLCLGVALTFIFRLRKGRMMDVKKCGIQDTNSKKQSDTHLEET
Kind of assay: PD-L1 whole blood internalization assay. The class given is cell-based. To be noted: 1 ng/mL interferon γ, CD14+ gated, 24 hour. An outline of the steps:
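Normal human whole blood exposed to compound concentration range plus 1 ng/mL IFN-γ for 18–20 h at 37 °C, then stained for PD-L1 and CD14, red cells lysed/fixed. PD-L1 MFI measured on CD14+ gated cells by flow cytometry; IC50 from percent inhibition versus log concentration fit.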

In assay [3] the test system is select advanced solid tumors (HPV+ carcinomas). As to the kind of experiment: Phase 1 open-label clinical trial of Compound 24. The class given is in vivo, human. Details: key: complete response (CR); partial response (PR); stable disease (SD); progressive disease (PD). An excerpt: Two open-label, nonrandomized, global multicenter Phase 1 studies in participants with select advanced solid tumors are being conducted for Compounds 24 and 30 in Table 1 supra. In addition to the primary endpoint of determining safety, tolerability, PAD and/or maximum tolerated dose (MTD) of each compound, the studies are exploring preliminary efficacy (complete response (CR), partial response (PR), stable disease (SD), or progressive disease (PD)) in participants with select advanced cancers, including virally mediated tumors such as HPV+ carcinomas. HPV+ tumors can be determined by a local laboratory using p16 IHC, polymerase chain reaction methods, or other locally-available method to detect HPV. Results for patients having solid tumors whose HPV+ status was confirmed, suspected or negative are shown below for Compound 24 and Compound 30 in Tables 4 and 5, respectively.

For assay [4], the system named is PD-L1 (U2OS/PD-L1 cells, Jurkat-PD-1-SHP cells). As to the kind of experiment: Src Homology Region 2 Domain-containing Phosphatase (SHP) assay. The format is cell-based. To be noted: Homo sapiens; U2OS/PD-L1 + Jurkat-PD-1-SHP cells, 2 hours. An outline of the steps: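 U2OS/PD-L1 cells and Jurkat-PD-1-SHP cells (5,000 each per well) were co-incubated with compound in RPMI1640/1% FBS for 2 h at 37° C, with final DMSO 0.05%. PathHunter chemiluminescence was read after 1 h at room temperature. IC50 was fitted from percent of DMSO-control activity against log concentration.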

Assay [5] deals with PD-L1 (PD-L1 aAPC/CHO-K1 cells, Jurkat-PD-1-NFAT effector cells). As to the kind of experiment: Nuclear Factor of Activated T-cells (NFAT) assay. The class given is cell-based. The following applies: Cricetulus griseus; PD-L1 aAPC/CHO-K1 + Jurkat-PD-1-NFAT cells, 24 hours. An outline of the steps: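 PD-L1 aAPC/CHO-K1 cells (8000/well) were treated with compound (0.4% DMSO, 2 µM final), then co-cultured with Jurkat-PD-1-NFAT effector cells for 24 hours at 37° C. NFAT luciferase luminescence was normalized to DMSO as fold induction. Maximum induction is relative to the control compound's top FOI; EC50 is from curve fitting.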

Each structure is given as a SMILES string.

T1 sequence (Q9NZQ7 19-238): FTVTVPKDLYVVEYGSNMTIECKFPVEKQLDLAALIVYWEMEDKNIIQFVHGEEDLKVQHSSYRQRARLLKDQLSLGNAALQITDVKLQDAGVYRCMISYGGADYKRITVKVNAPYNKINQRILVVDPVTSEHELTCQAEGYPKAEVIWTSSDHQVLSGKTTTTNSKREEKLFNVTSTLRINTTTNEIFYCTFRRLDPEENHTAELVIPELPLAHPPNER

The IC50 is the concentration needed to halve the response being measured. For `Cc1c(Nc2nc(C(F)F)nc3cc(CN4CC[C@@H](O)C4)cnc23)cccc1-c1cccc(-c2nc3cc(CN4CCC(C(=O)O)CC4)cc(C#N)c3o2)c1C` [Compound 24], the IC50 was less than 0.01 µM in assay [1] and less than 0.1 µM in assay [2]. For the same compound, the “Best Overall Response” value in assay [3] (Patient 1, 200 mg QD, Cervical cancer (AC), HPV/p16 status Not determined) is on record as “SD”; in assay [3] (Patient 2, 200 mg BID, Cervical cancer (clear cell), HPV/p16 status Not determined), “PD”; in assay [3] (Patient 3, 400 mg BID, Anal carcinoma, HPV 16 positive), “SD”; in assay [3] (Patient 4, 400 mg BID, Anal carcinoma, HPV 16 positive), “SD”; in assay [3] (Patient 5, 300 mg BID, Vaginal cancer (SCC), HPV 16 positive), “SD”; in assay [3] (Patient 6, 400 mg BID, Cervical cancer (SCC), HPV 16 positive), “PR”. Also, the “Best Overall Response” value in assay [3] (Patient 7, 200 mg BID, Anal carcinoma (SCC), Positive unknown type) was “PD”; in assay [3] (Patient 8, 400 mg BID, Anal carcinoma, HPV 16 positive), “PD”; in assay [3] (Patient 9, 600 mg QD, Anal carcinoma (rectovaginal), HPV 16,33,31 positive), “SD”; in assay [3] (Patient 10, 400 mg BID, Cervical cancer (AC), HPV 16 positive), “SD”; in assay [3] (Patient 11, 400 mg BID, Anal carcinoma (SCC), HPV/p16 status Not determined) it was “PR”; in assay [3] (Patient 12, 600 mg QD, Anal carcinoma (SCC), HPV/p16 status Not determined), “SD”. In addition, the “Best Overall Response” value is “PD” in assay [3] (Patient 13, 400 mg BID, Rectovaginal septum (SCC), P16+, HPV 16); “PD” in assay [3] (Patient 14, 600 mg QD, Anal carcinoma, HPV 16); “PD” in assay [3] (Patient 15, 800 mg QD, Anal carcinoma, HPV 16); “PD” in assay [3] (Patient 16, 800 mg QD, Vulvar (SCC), HPV/p16 status Not determined); “PD” in assay [3] (Patient 18, 800 mg QD, Cervical cancer (SCC), P16 positive); “PD” in assay [3] (Patient 19, 800 mg QD, Anal cancer, HPV 16 positive). The “Best Overall Response” value is given as “PD” in assay [3] (Patient 20, 800 mg QD, Anal cancer, HPV 16 positive) and “SD” in assay [3] (Patient 21, 300 mg BID, Anal cancer, HPV 16).

As a reminder, the EC50 is the concentration giving half of the maximal effect. Turning to `Cc1c(NC(=O)c2nc3c(n2C)CCN(CCC24CCC(C(=O)O)(CC2)C4)C3)cccc1-c1cccc(NC(=O)c2nc3c(n2C)CCN(CCC24CCC(C(=O)O)(CC2)C4)C3)c1Cl` [Compound 32, 4,4′-(((((2-chloro-2′-methyl-[1,1′-biphenyl]-3,3′-diyl)bis(azanediyl))bis(carbonyl))bis(1-methyl-1,4,6,7-tetrahydro-5H-imidazo[4,5-c]pyridine-2,5-diyl))bis(ethane-2,1-diyl))bis(bicyclo[2.2.1]heptane-1-carboxylic acid)], the IC50 in assay [1] is less than 0.01 µM; in assay [4] it was less than 0.01 µM; in assay [2], less than 0.1 µM. Besides, in assay [5], the EC50 was less than 0.1 µM.

With `Cn1c(C(=O)Nc2cccc(-c3cccc(NC(=O)c4nc5c(n4C)CCN(CCC46CCC(C(=O)O)(CC4)C6)C5)c3C#N)c2Cl)nc2c1CCN(CCC13CCC(C(=O)O)(CC1)C3)C2` [Compound 33, 4,4′-(((((2-chloro-2′-cyano-[1,1′-biphenyl]-3,3′-diyl)bis(azanediyl))bis(carbonyl))bis(1-methyl-1,4,6,7-tetrahydro-5H-imidazo[4,5-c]pyridine-2,5-diyl))bis(ethane-2,1-diyl))bis(bicyclo[2.2.1]heptane-1-carboxylic acid)], the IC50 is less than 0.01 µM in assay [1], less than 0.01 µM in assay [4] and less than 0.1 µM in assay [2]. In addition, the EC50 in assay [5] is less than 0.1 µM.

In the case of `Cc1c(Nc2nc(C(F)F)nc3cc(CN4CC[C@@H](O)C4)cnc23)cccc1-c1cccc(NC(=O)c2nc3c(n2C)CCN(CCC24CCC(C(=O)O)(CC2)C4)C3)c1Cl` [Compound 34, (R)-4-(2-(2-((2-chloro-3′-((2-(difluoromethyl)-7-((3-hydroxypyrrolidin-1-yl)methyl)pyrido[3,2-d]pyrimidin-4-yl)amino)-2′-methyl-[1,1′-biphenyl]-3-yl)carbamoyl)-1-methyl-1,4,6,7-tetrahydro-5H-imidazo[4,5-c]pyridin-5-yl)ethyl)bicyclo[2.2.1]heptane-1-carboxylic acid], the IC50 in assay [1], in assay [4] and in assay [2] was less than 0.01 µM throughout. Besides, the EC50 in assay [5] was less than 0.01 µM.
